This is an account of results in patent US20150209309A1, “NACA FOR THE TREATMENT OF CHRONIC OR ACUTE COGNITIVE DYSFUNCTION” (Brighton Biotech, Inc, priority 2014, published 2015).

For data set [1] the following is noted: in vivo.
For data set [2] the following is noted: cited from earlier work.

Molecules are shown by their SMILES.

As for `CC(=O)N[C@@H](CS)C(=O)O` [NAC, N-acetyl-L-cysteine], the “crossing of the blood-brain barrier” value in data set [1] was “inability to cross the blood-brain barrier”. Also, the “membrane penetration / cell permeability” value in data set [2] is “low membrane penetration”.
